pEC50, pIC50: −log10 of the molar value.
Assays:
Assay type in all cases: cell-based
[1] = molecular target: T1, Human LPA1 (Homo sapiens, UniProt Q92633); experiment: Beta-Arrestin based assay for human LPA1R antagonists (PathHunter); details: CHO cells expressing ProLink tagged human LPA1R; antagonist mode, 0.5 micromolar LPA
Description: Beta-Arrestin Based Assays for Human LPA1R Antagonists and Agonists
A CHO cell line stably expressing the ProLink™ tagged human LPA1R was obtained from DiscoverX Inc, Fremont, Calif. In this system, β-Arrestin was fused to an N-terminal deletion mutant of β-galactosidase (termed the enzyme acceptor or EA), the human LPA1R was fused to a smaller (42 amino acids) weakly complementing fragment termed ProLink™. […] Cell handling and assays were performed according to protocols specified in the PathHunter® assays kits (DiscoverX, Fremont, Calif.). Assays were performed in quadruplicate in white 384 well plates. End point luminescence data were plotted and fit to a 4 parameter logistic function to obtain IC50 values. For antagonist assays, an […] concentration of agonist (LPA) equal to 0.5 micromolar was used.

[2] = test system: primary fibroblasts (including lung, dermal), HFL-1, 3T3 and CHO cells expressing LPA1R; experiment: LPA1 migration assay (Oris cell migration); details: inhibition of cell migration in response to chemoattractant (LPA, serum)
Source text: Migration of primary fibroblasts (including lung, dermal), HFL-1, 3T3 and CHO cells expressing LPA1R were monitored using the Oris™ assay (Platypus Technologies, Madison, Wis.). These cells were dye (Cell Tracker Green™) loaded and serum starved for 12-24 hrs. In response to chemoattractants such as LPA and serum, the cells migrated inward in to the exclusion (detection) zone. After fixing, fluorescent cells in the detection zone were counted using a high content reader. The ability of LPA1 antagonists to inhibit cell migration is quantified by plotting cell number vs. compound concentration and curve fitting the resulting dose-response curve to a 4 parameter logistic function.

[3] = molecular target: T1, Human LPA1; experiment: LPA1 calcium flux assay; design: the full-length cDNA for human LPA1 is obtained by PCR of the reverse transcription reaction; expressed in transfected cells; details: human LPA1 expressing CHO cells, stimulated with 10 nM LPA; read-out: Ca Flux LPA1 IC50
Description: Establishment of a CHO Cell Line Stably Expressing Human LPA1
A 1.1 kb cDNA encoding the human LPA1 receptor is cloned from human lung. Human lung RNA (Clontech Laboratories, Inc. USA) is reverse transcribed using the RETROscript kit (Ambion, Inc.) and the full-length cDNA for human LPA1 is obtained by PCR of the reverse transcription reaction. The nucleotide sequence of the cloned human LPA1 is determined by sequencing and is confirmed to be identical to the published human LPA1 sequence (An et al. Biochem. Biophys. Res. Commun. 231:619 (1997). The cDNA is cloned into the pCDNA5 pcDNA5/FRT expression plasmid and is transfected in CHO cells using lipofectamine 2000 (Invitrogen Corp., USA). Clones stably expressing human LPA1 are selected using hygromycin and identified as cells that show Ca-influx in response to LPA.
LPA1 and LPA3 Calcium Flux Assays
Human LPA1 or LPA3 expressing CHO cells were seeded at 20,000-45,000 cells per well in a 96-well poly-D-lysine coated plate one or two days before the assay. Prior to the assay, the cells were washed once with PBS and then cultured in serum-free media overnight. On the day of the assay, a calcium indicator dye (Calcium 4, Molecular Devices) in assay buffer (HBSS with Ca^2+ and Mg^2+ and containing 20 mM Hepes and 0.3% fatty-acid free human serum albumin) was added to each well and incubation continued for 1 hour at 37° C. 10 μl of test compounds in 2.5% DMSO were added to the cells and incubation continued at room temperature for 30 minutes. Cells were then stimulated by the addition of 10 nM LPA and intracellular Ca^2+ measured using the Flexstation 3 (Molecular Devices). IC50, were determined using Graphpad prism analysis of drug titration curves.

T1 sequence (Q92633 whole entry): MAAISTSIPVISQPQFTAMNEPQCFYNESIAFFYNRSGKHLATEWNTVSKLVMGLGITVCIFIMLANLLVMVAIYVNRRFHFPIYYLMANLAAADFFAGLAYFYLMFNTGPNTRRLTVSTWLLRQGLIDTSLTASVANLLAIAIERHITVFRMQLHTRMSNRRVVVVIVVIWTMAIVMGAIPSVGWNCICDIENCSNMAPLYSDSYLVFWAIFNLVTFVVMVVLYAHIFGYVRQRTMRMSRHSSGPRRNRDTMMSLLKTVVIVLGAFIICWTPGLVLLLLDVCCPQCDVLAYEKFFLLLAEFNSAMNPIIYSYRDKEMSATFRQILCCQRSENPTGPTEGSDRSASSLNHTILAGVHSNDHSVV

| Compound | pEC50 [1] | pIC50 [3] | pEC50 [2] |
| --- | --- | --- | --- |
| Cc1noc(-c2ccc(-c3ccc(C4(CC(=O)O)CC4)cc3)cc2)c1NC(=O)O[C@H](C)c1ccccc1 [IT004] | > 7.30 | > 7.30 | > 7.30 |
| Cc1noc(-c2ccc(-c3ccc4c(C(=O)O)c[nH]c4c3)cc2)c1NC(=O)O[C@H](C)c1ccccc1 [IT009] | < 6.30 | < 6.30 | < 6.30 |
| Cc1noc(-c2ccc(-c3nc4ccc(C(=O)O)cc4s3)cc2)c1NC(=O)O[C@H](C)c1ccccc1 [IT010] | < 6.30 | < 6.30 | < 6.30 |
| CC(=O)N1CCn2c(nc(-c3ccc(-c4ccc(C5(C(=O)O)CC5)cc4)cc3)c2NC(=O)O[C@H](C)c2ccccc2)C1 [IT020] | < 6.30 | < 6.30 | < 6.30 |
| CNC(=O)N1CCn2c(nc(-c3ccc(-c4ccc(C5(C(=O)O)CC5)cc4)cc3)c2NC(=O)O[C@H](C)c2ccccc2)C1 [IT022] | < 6.30 | < 6.30 | < 6.30 |
| CCOC(=O)N1CCn2c(nc(-c3ccc(-c4ccc(C5(C(=O)O)CC5)cc4)cc3)c2NC(=O)O[C@H](C)c2ccccc2)C1 [IT023] | < 6.30 | < 6.30 | < 6.30 |
| Cc1nsc(-c2ccc(C34CCC(CC(=O)O)(CC3)CC4)cc2)c1NC(=O)O[C@H](C)c1ccccc1 [IT026] | < 6.30 | < 6.30 | < 6.30 |
| C[C@@H](OC(=O)Nc1c(-c2ccc(-c3ccc(C4(C(=O)O)CCOCC4)cc3)cc2)ncn1C)c1ccccc1 [IT027] | 6.30 to 7.30 | 6.30 to 7.30 | < 6.30 |
| Cc1noc(-c2ccc(-c3ccc(C4(C(=O)O)CCOCC4)cc3)c(F)c2)c1NC(=O)O[C@H](C)c1ccccc1 [IT028] | > 7.30 | > 7.30 | > 7.30 |
| Cc1noc(-c2cc(F)c(-c3ccc(C4(C(=O)O)CCOCC4)cc3)cc2F)c1NC(=O)O[C@H](C)c1ccccc1 [IT029] | > 7.30 | 6.30 to 7.30 | 6.30 to 7.30 |
| Cc1noc(-c2cc(F)c(-c3ccc(C4(C(=O)O)CCOCC4)cc3)cc2F)c1NC(=O)O[C@H](C)c1ccccc1 [IT030] | < 6.30 | < 6.30 | < 6.30 |
| C[C@@H](OC(=O)Nc1c(-c2ccc(-c3ccc(C4(C(=O)O)CC4)cc3)cc2)sc2ncccc12)c1ccccc1 [IT031] | > 7.30 | 6.30 to 7.30 | 6.30 to 7.30 |
| C[C@@H](OC(=O)Nc1c(-c2ccc(-c3ccc(C4(C(=O)O)CC4)cc3)cc2)nc2cnccn12)c1ccccc1 [IT032] | > 7.30 | 6.30 to 7.30 | 6.30 to 7.30 |
| C[C@@H](OC(=O)Nc1c(-c2ccc(-c3ccc(C4(C(=O)O)CC4)cc3)cc2)nn2ncccc12)c1ccccc1 [IT033] | > 7.30 | 6.30 to 7.30 | > 7.30 |
| Cc1nsc(-c2ccc3cc(-c4ccc(C(=O)O)cc4)ccc3c2)c1NC(=O)O[C@H](C)c1ccccc1 [IT040] | < 6.30 | < 6.30 | < 6.30 |
| Cc1noc(C#Cc2ccc(-c3ccc(C(=O)O)cc3)cc2)c1NC(=O)O[C@H](C)c1ccccc1 [IT081] | < 6.30 | – | < 6.30 |
| Cc1nsc(-c2ccc(C3CCC(C4(C(=O)O)CC4)CC3)cc2)c1NC(=O)O[C@H](C)c1ccccc1 (stereo partly drawn) [IT091] | 6.30 to 7.30 | – | < 6.30 |
| Cc1nsc(-c2ccc(C34CCC(C5(C(=O)O)CC5)(CC3)CC4)cc2)c1NC(=O)O[C@H](C)c1ccccc1 [IT093] | < 6.30 | – | < 6.30 |
| C[C@@H](OC(=O)Nc1c(-c2cc(F)c(-c3ccc(C4(C(=O)O)CC4)cc3)cc2F)oc2cnccc12)c1ccccc1 [IT096] | > 7.30 | – | 6.30 to 7.30 |

Second part, led by results:

| pEC50 [1] | pIC50 [3] | Compound | pEC50 [2] |
| --- | --- | --- | --- |
| > 7.30 | > 7.30 | Cc1noc(C#Cc2ccc3cc(C4(CC(=O)O)CC4)ccc3c2)c1NC(=O)O[C@H](C)c1ccccc1 [IT003] | 6.30 to 7.30 |
| > 7.30 | > 7.30 | C[C@@H](OC(=O)Nc1c(C#Cc2ccc3cc(C4(C(=O)O)CC4)ccc3c2)cnn1C)c1ccccc1 [IT014] | 6.30 to 7.30 |
| > 7.30 | 6.30 to 7.30 | C[C@@H](OC(=O)Nc1c(C#Cc2ccc3cc(C4(C(=O)O)CC4)ccc3c2)cnn1C1CC1)c1ccccc1 [IT015] | 6.30 to 7.30 |
| > 7.30 | > 7.30 | CCn1ncc(C#Cc2ccc3cc(C4(C(=O)O)CC4)ccc3c2)c1NC(=O)O[C@H](C)c1ccccc1 [IT016] | 6.30 to 7.30 |
| > 7.30 | > 7.30 | C[C@@H](OC(=O)Nc1c(C#Cc2cc3sc(C4(C(=O)O)CC4)cc3s2)cnn1C)c1ccccc1 [IT017] | > 7.30 |
| < 6.30 | < 6.30 | C[C@@H](OC(=O)Nc1c(-c2ccc(C#CC3(C(=O)O)CC3)cc2)cnn1C)c1ccccc1 [IT018] | < 6.30 |
| < 6.30 | < 6.30 | C[C@@H](OC(=O)Nc1c(-c2ccc(-c3ccc(C4(C(=O)O)CC4)cc3)cc2)nc2n1CCN(S(C)(=O)=O)C2)c1ccccc1 [IT021] | < 6.30 |
| > 7.30 | 6.30 to 7.30 | Cc1nsc(C#Cc2cc3sc(C4(C(=O)O)CC4)cc3s2)c1NC(=O)O[C@H](C)c1ccccc1 [IT034] | 6.30 to 7.30 |
| > 7.30 | < 6.30 | C[C@@H](OC(=O)Nc1c(C#Cc2ccc3cc(C4(C(=O)O)CC4)ccc3c2)sc2ncccc12)c1ccccc1 [IT035] | 6.30 to 7.30 |
| 6.30 to 7.30 | – | C[C@@H](OC(=O)Nc1c(C#Cc2cc3sc(C4(C(=O)OCCN5CCOCC5)CC4)cc3s2)cnn1C)c1ccccc1 [IT082] | 6.30 to 7.30 |
| < 6.30 | – | C[C@@H](OC(=O)Nc1c(C#Cc2cc3sc(C4(CO)CC4)cc3s2)cnn1C)c1ccccc1 [IT083] | < 6.30 |
| > 7.30 | – | COCCOC(=O)C1(c2cc3sc(C#Cc4cnn(C)c4NC(=O)O[C@H](C)c4ccccc4)cc3s2)CC1 [IT084] | 6.30 to 7.30 |
| > 7.30 | – | CCOC(=O)C1(c2cc3sc(C#Cc4cnn(C)c4NC(=O)O[C@H](C)c4ccccc4)cc3s2)CC1 [IT085] | < 6.30 |
| 6.30 to 7.30 | – | CC(C)OC(=O)C1(c2cc3sc(C#Cc4cnn(C)c4NC(=O)O[C@H](C)c4ccccc4)cc3s2)CC1 [IT086] | < 6.30 |
| > 7.30 | – | C[C@@H](OC(=O)Nc1c(C#Cc2cc3sc(C4(C(=O)OCOC(=O)C(C)(C)C)CC4)cc3s2)cnn1C)c1ccccc1 [IT087] | > 7.30 |
| > 7.30 | – | COc1ccccc1OC(=O)C1(c2cc3sc(C#Cc4cnn(C)c4NC(=O)O[C@H](C)c4ccccc4)cc3s2)CC1 [IT088] | 6.30 to 7.30 |
| < 6.30 | – | C[C@@H](OC(=O)Nc1c(C#Cc2cc3sc(C4(NS(C)(=O)=O)CC4)cc3s2)cnn1C)c1ccccc1 [IT089] | < 6.30 |
| > 7.30 | – | C[C@@H](OC(=O)Nc1c(C#Cc2cc3sc(C4(C(=O)OCC(=O)N(C)C)CC4)cc3s2)cnn1C)c1ccccc1 [IT090] | 6.30 to 7.30 |
| < 6.30 | – | C[C@@H](OC(=O)Nc1c(C#CC2=CCC(C3(C(=O)O)CC3)CC2)cnn1C)c1ccccc1 (stereo partly drawn) [IT092] | < 6.30 |
| > 7.30 | – | C[C@@H](OC(=O)Nc1c(-c2ccc(-c3ccc(C4(C(=O)O)CC4)cc3)cc2)cnn1C(F)(F)F)c1ccccc1 [IT094] | 6.30 to 7.30 |
| > 7.30 | – | C[C@@H](OC(=O)Nc1c(C#Cc2nc3sc(C4(C(=O)O)CC4)cc3s2)cnn1C)c1ccccc1 [IT095] | > 7.30 |
| 6.30 to 7.30 | – | C[C@@H](OC(=O)N(C)c1c(C#Cc2cc3sc(C4(C(=O)O)CC4)cc3s2)cnn1C)c1ccccc1 [IT097] | < 6.30 |
| > 7.30 | – | C[C@@H](OC(=O)Nc1c(C#Cc2cc3sc(C4(C(=O)NS(C)(=O)=O)CC4)cc3s2)cnn1C)c1ccccc1 [IT098] | > 7.30 |
